According to publication PMC11173485, “Connecting GSK-3β Inhibitory Activity with IKK-β or ROCK-1 Inhibition to Target Tau Aggregation and Neuroinflammation in Alzheimer’s Disease—Discovery, In Vitro and In Cellulo Activity of Thiazole-Based Inhibitors” (Molecules, 2024):

Tests used:
IKK-β [1] = biological target: T1, IKK-β (Homo sapiens, UniProt O14920); experiment: ADP-Glo kinase assay, IKK-β inhibition; format: biochemical; conditions: for inhibition at 10 µM: mean ± SD, read-out: % inh. at 10 µM IKK-β; for IC50: mean ± SEM, ATP 25 µM
T1 construct: purchased Promega
T1 sequence (O14920 1-756): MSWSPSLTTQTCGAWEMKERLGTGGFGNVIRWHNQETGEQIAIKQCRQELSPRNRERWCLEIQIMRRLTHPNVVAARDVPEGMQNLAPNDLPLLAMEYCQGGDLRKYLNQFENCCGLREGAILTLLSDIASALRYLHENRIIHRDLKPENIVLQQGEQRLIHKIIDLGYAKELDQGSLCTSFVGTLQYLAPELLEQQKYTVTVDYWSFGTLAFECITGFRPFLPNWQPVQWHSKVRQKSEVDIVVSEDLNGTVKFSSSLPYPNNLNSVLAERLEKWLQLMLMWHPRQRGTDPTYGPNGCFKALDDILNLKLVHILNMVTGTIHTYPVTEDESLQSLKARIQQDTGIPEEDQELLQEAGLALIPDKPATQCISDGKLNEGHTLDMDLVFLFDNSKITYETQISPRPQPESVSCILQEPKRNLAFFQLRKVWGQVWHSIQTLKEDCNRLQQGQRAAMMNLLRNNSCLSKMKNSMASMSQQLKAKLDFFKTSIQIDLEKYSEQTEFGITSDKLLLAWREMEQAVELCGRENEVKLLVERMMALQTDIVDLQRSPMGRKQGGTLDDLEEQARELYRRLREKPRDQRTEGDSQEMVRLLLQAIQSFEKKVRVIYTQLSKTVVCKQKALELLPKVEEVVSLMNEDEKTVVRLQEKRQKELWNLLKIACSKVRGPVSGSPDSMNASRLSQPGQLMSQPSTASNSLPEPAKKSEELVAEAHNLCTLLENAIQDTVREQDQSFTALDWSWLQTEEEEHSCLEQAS
Description: (§1) We evaluated the inhibitory activity of the final compounds against GSK-3β, IKK-β, and ROCK-1 kinases using the commercially available ADP-Glo™ kinase assay. The method was based on the measurement of luminescence that correlates with kinase activity. […] The latter are inhibitors of the kinases of interest and were integral to the design of our studies.
(§2) Promega’s Kinase Enzyme Systems (Promega; Madison, WI, USA) were used to determine the activities of the tested compounds against the human recombinant kinases GSK-3β, IKK- β, and ROCK-1. The assays were performed according to the provided manufacturer’s instruction, based on the optimized conditions of the enzymatic reactions, using the low-volume, white polystyrene, 384-well plates. The ADP-Glo™ Assay (Promega; Madison, WI, USA) was used for bioluminescent detection of the kinase activity. Stock solutions of the tested compounds in DMSO (1mM) were diluted with the Kinase Assay Buffer before use (40 mM Tris, pH 7.5, enriched with 50 µM dithiothreitol; DTT), giving the final desired concentrations. The kinase enzymes, substrates, and ATP solutions were also diluted with the assay buffer prior to use. The GSK-3β, IKK-β, and ROCK-1 substrates were derived from human muscle glycogen synthase 1, human IkBA, and human 40S ribosomal protein S6, respectively. The assay procedure was as follows: At first, the appropriate kinase enzyme (GSK-3β: 10 ng per well; IKK-β: 45 ng per well; ROCK-1: 24 ng per well) was incubated with the tested sample (10 µM in well) for 5 min. The DMSO solution (1% in well) was used in the blank samples instead of the tested inhibitors. After the incubation period, ATP (25 µM per well in the case of GSK-3β and IKK-β kinases; 5 µM per well in the case of ROCK-1 kinase) and an appropriate enzyme substrate (0.2 µg/µL in well) were added to start the enzymatic reaction. The reaction mixture was kept at room temperature for 1 h; then, the ADP-Glo™ reagent was added, to terminate the kinase reaction and deplete any remaining ATP. After 40 min, a second reagent (Kinase Detection Reagent) was applied to convert the obtained ADP to ATP and to generate light from the newly synthesized ATP using a luciferase/luciferin reaction. The mixture was incubated for another 30 min at room temperature before the luminescence was measured. The calculations of the percent of kinases’ inhibition by tested compounds were based on the equation 100 − (S/B) × 100; S and B are the enzyme activities with and without the tested sample, respectively. […] Each compound was evaluated in two independent experiments, with every data point collected in duplicate.

ROCK-1 [2] = biological target: T2, ROCK-1 (Homo sapiens, UniProt Q13464); experiment: ADP-Glo kinase assay, ROCK-1 inhibition; format: biochemical; conditions: for IC50: mean ± SEM, ATP 5 µM; for inhibition at 10 µM: mean ± SD, read-out: % inh. at 10 µM ROCK-1
T2 construct: purchased Promega
Description: as §1
Promega’s Kinase Enzyme Systems (Promega; Madison, WI, USA) were used to determine the activities of the tested compounds against the human recombinant kinases GSK-3β, IKK- β, and ROCK-1. The assays were performed according to the provided manufacturer’s instruction, based on the optimized conditions of the enzymatic reactions, using the low-volume, white polystyrene, 384-well plates. The ADP-Glo™ Assay (Promega; Madison, WI, USA) was used for bioluminescent detection of the kinase activity. Stock solutions of the tested compounds in DMSO (1mM) were diluted with the Kinase Assay Buffer before use (40 mM Tris, pH 7.5, enriched with 50 µM dithiothreitol; DTT), giving the final desired concentrations. The kinase enzymes, substrates, and ATP solutions were also diluted with the assay buffer prior to use. The GSK-3β, IKK-β, and ROCK-1 substrates were derived from human muscle glycogen synthase 1, human IkBA, and human 40S ribosomal protein S6, respectively. […] The DMSO solution (1% in well) was used in the blank samples instead of the tested inhibitors. After the incubation period, ATP (25 µM per well in the case of GSK-3β and IKK-β kinases; 5 µM per well in the case of ROCK-1 kinase) and an appropriate enzyme substrate (0.2 µg/µL in well) were added to start the enzymatic reaction. The reaction mixture was kept at room temperature for 1 h; then, the ADP-Glo™ reagent was added, to terminate the kinase reaction and deplete any remaining ATP. After 40 min, a second reagent (Kinase Detection Reagent) was applied to convert the obtained ADP to ATP and to generate light from the newly synthesized ATP using a luciferase/luciferin reaction. The mixture was incubated for another 30 min at room temperature before the luminescence was measured. The calculations of the percent of kinases’ inhibition by tested compounds were based on the equation 100 − (S/B) × 100; S and B are the enzyme activities with and without the tested sample, respectively. […]. IC50 results were obtained using nonlinear regression (GraphPad Prism 9; GraphPad Software, San Diego, CA, USA) by plotting the residual enzyme activities against the applied inhibitor concentration. Each compound was evaluated in two independent experiments, with every data point collected in duplicate.

ROCK-1 [3] = test system: ROCK-1; set-up: method as in PMID 28284870; conditions: Figure 1; cited from earlier work
GSK-3β = GSK-3β (Homo sapiens, UniProt P49841); experiment: ADP-Glo kinase assay, GSK-3β inhibition; format: biochemical; set-up: purchased Promega; conditions: for IC50: mean ± SEM, ATP 25 µM; for inhibition at 10 µM: mean ± SD, read-out: % inh. at 10 µM GSK-3β
Description: as §1, §2

IKK-β [4] = test system: IKK-β; set-up: method as in PMID 15125939; conditions: Figure 1; cited from earlier work

Chain of GSK-3β (P49841 whole entry): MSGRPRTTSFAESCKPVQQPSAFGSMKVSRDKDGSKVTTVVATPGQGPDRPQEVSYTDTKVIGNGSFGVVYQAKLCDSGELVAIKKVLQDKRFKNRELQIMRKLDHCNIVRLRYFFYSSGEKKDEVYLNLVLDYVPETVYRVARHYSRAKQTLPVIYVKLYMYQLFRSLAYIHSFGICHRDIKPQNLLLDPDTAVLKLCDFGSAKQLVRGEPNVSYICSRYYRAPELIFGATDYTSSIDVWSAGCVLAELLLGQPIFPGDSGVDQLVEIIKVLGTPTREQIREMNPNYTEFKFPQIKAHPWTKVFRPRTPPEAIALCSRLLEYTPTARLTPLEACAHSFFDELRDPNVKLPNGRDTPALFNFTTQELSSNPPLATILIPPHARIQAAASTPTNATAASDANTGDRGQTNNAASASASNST
T2 sequence (Q13464 whole entry): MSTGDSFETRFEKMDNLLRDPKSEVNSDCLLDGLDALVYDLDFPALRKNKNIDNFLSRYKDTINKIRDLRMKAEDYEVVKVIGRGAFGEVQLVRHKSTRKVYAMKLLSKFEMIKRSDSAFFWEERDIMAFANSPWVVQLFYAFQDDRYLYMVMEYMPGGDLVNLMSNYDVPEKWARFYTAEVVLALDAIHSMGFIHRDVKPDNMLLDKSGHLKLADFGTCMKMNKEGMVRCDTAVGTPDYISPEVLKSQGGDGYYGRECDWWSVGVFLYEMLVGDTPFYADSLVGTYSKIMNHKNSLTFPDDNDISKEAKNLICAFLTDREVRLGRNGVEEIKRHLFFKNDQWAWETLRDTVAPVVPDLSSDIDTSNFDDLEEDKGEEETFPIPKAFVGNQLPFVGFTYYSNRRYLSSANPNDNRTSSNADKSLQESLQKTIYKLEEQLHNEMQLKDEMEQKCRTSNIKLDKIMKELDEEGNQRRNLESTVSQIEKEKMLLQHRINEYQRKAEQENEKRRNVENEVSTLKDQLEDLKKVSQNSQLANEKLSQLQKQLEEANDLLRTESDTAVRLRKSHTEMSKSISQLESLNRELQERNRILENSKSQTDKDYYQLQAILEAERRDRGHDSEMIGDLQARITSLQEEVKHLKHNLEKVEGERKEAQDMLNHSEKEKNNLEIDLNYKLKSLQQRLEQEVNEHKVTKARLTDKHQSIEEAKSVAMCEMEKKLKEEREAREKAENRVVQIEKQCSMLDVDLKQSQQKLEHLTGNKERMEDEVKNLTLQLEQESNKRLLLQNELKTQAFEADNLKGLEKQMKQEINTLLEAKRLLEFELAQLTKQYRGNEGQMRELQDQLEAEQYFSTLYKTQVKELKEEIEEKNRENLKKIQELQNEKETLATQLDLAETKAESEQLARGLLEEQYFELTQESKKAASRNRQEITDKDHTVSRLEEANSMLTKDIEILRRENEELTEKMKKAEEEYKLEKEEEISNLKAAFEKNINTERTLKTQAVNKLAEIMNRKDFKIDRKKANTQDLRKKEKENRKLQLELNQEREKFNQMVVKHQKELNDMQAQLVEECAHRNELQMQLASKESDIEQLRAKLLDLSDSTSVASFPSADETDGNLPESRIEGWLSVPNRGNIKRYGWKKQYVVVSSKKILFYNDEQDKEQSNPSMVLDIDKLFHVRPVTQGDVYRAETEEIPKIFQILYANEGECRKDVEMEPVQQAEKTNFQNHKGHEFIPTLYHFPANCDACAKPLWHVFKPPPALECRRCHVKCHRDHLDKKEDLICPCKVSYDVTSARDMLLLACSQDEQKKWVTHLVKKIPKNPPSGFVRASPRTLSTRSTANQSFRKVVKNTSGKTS

Row | SMILES | inhibition at 10 µM (IKK-β [1]) [%] | IC50 (ROCK-1 [2]) [nM] | IC50 (GSK-3β) [nM] | inhibition at 10 µM (ROCK-1 [2]) [%] | inhibition at 10 µM (GSK-3β) [%] | IC50 (IKK-β [1]) [nM] | IC50 (ROCK-1 [3]) [nM] | IC50 (IKK-β [4]) [nM]
1 | CC(=O)Nc1cc(-c2cc(NC(N)=O)c(C(N)=O)s2)ccn1 [Compound 47, 5-(2-Acetamidopyridin-4-yl)-3-ureidothiophene-2-carboxamide] | 17 |  |  |  | 34 |  |  | 
2 | CC1(C)NC(=O)c2sc(-c3ccnc(NC(=O)C4CCCCC4)c3)cc2N1 [Compound 42, N-(4-(2,2-Dimethyl-4-oxo-1,2,3,4-tetrahydrothieno [3,2-d]pyrimidin-6-yl)pyridin-2-yl)-cyclohexanecarboxamide] | 18 |  | 830 ± 30 | 30 |  |  |  | 
3 | NC(=O)Nc1cc(-c2ccc(F)c(NC(=O)C3CC3)c2)sc1C(N)=O [Compound 59, 5-(3-(Cyclopropanecarboxamido)-4-fluorophenyl)-3-ureidothiophene-2-carboxamide] |  |  | 1850 ± 38 | < 10 |  | 7620 ± 695 |  | 
4 | NC(=O)Nc1cc(-c2ccnc(NC(=O)c3ccccc3)c2)sc1C(N)=O [Compound 52, 5-(2-Benzamidopyridin-4-yl)-3-ureidothiophene-2-carboxamide] | 30 |  | 398 ± 12 | 15 |  |  |  | 
5 | CC1(C)NC(=O)c2sc(-c3ccc(F)c(NC(=O)C4CC4)c3)cc2N1 [Compound 54, N-(5-(2,2-Dimethyl-4-oxo-1,2,3,4-tetrahydrothieno [3,2-d]pyrimidin-6-yl)-2-fluorophenyl)-cyclopropanecarboxamide] | 10 |  | 453 ± 13 |  |  |  |  | 
6 | NC(=O)Nc1cc(-c2ccc(F)cc2)sc1C(N)=O [III, reference compound] |  |  |  |  | 47 | 405 ± 9 |  | 63
7 | O=C1NC2(CCCO2)Nc2cc(-c3ccnc(NC(=O)C4CC4)c3)sc21 (stereo not shown) [Compound 61, N-(4-(4′-Oxo-3′,4,4′,5-tetrahydro-1′H,3H-spiro[furan-2,2′-thieno [3,2-d]pyrimidin]-6′-yl)pyridin-2-yl)cyclopropanecarboxamide] | < 10 |  | 12 | 40 |  |  |  | 
8 | NC(=O)Nc1cc(-c2ccnc(NC(=O)C3CCCCC3)c2)sc1C(N)=O [Compound 51, 5-(2-(Cyclohexanecarboxamido)pyridin-4-yl)-3-ureidothiophene-2-carboxamide] | < 10 |  | 614 ± 26 |  |  |  |  | 
9 | CC1(C)NC(=O)c2sc(-c3ccnc(NC(=O)c4ccccc4)c3)cc2N1 [Compound 43, N-(4-(2,2-Dimethyl-4-oxo-1,2,3,4-tetrahydrothieno [3,2-d]pyrimidin-6-yl)pyridin-2-yl)benzamide] | 38 | 3740 ± 217 | 1310 ± 42 |  |  |  |  | 

Further lines, with some results ahead:

Row | inhibition at 10 µM (IKK-β [1]) [%] | IC50 (ROCK-1 [2]) [nM] | IC50 (GSK-3β) [nM] | inhibition at 10 µM (ROCK-1 [2]) [%] | inhibition at 10 µM (GSK-3β) [%] | IC50 (IKK-β [1]) [nM] | SMILES | IC50 (ROCK-1 [3]) [nM] | IC50 (IKK-β [4]) [nM]
10 | 46 | 119 ± 6 | 161 ± 2 |  |  |  | CC1(C)NC(=O)c2sc(-c3ccncc3)cc2N1 [I, reference compound] | 90 | 
11 | 16 |  |  | < 10 | 11 |  | CCS(=O)(=O)Nc1cccc(-c2cc3c(s2)C(=O)NC(C)(C)N3)c1 [Compound 55, N-(3-(2,2-Dimethyl-4-oxo-1,2,3,4-tetrahydrothieno [3,2-d]pyrimidin-6-yl)phenyl)ethanesulfonamide] |  | 
12 | 41 | 1730 ± 78 |  |  | 39 |  | CC1(C)NC(=O)c2sc(-c3ccnc(NCC4CC4)c3)cc2N1 [Compound 46, 6-(2-((Cyclopropylmethyl)amino)pyridin-4-yl)-2,2-dimethyl-2,3-dihydrothieno [3,2-d]pyrimidin-4(1H)-one] |  | 
13 |  |  | 1130 ± 43 | 50 |  | 6520 ± 281 | CC(=O)Nc1cc(-c2cc3c(s2)C(=O)NC(C)(C)N3)ccn1 [Compound 38, N-(4-(2,2-Dimethyl-4-oxo-1,2,3,4-tetrahydrothieno [3,2-d]pyrimidin-6-yl)pyridin-2-yl)acetamide] |  | 
14 | < 10 |  |  | 33 | < 10 |  | CC1(C)NC(=O)c2sc(-c3cccc(NS(=O)(=O)C4CCCCC4)c3)cc2N1 [Compound 56, N-(3-(2,2-Dimethyl-4-oxo-1,2,3,4-tetrahydrothieno [3,2-d]pyrimidin-6-yl)phenyl)cyclohexanesulfonamide] |  | 
15 | < 10 |  |  | < 10 | 32 |  | CC1(C)NC(=O)c2sc(-c3ccnc(NS(C)(=O)=O)c3)cc2N1 [Compound 44, N-(4-(2,2-Dimethyl-4-oxo-1,2,3,4-tetrahydrothieno [3,2-d]pyrimidin-6-yl)pyridin-2-yl)-methanesulfonamide] |  | 
16 | 17 |  |  | < 10 | < 10 |  | CC1(C)NC(=O)c2sc(-c3cccc(S(=O)(=O)N4CCCCC4)c3)cc2N1 [Compound 57, 2,2-Dimethyl-6-(3-(piperidin-1-ylsulfonyl)phenyl)-2,3-dihydrothieno [3,2-d]pyrimidin-4(1H)-one] |  | 
17 | < 10 |  |  | < 10 | 40 |  | CCS(=O)(=O)Nc1cc(-c2cc3c(s2)C(=O)NC(C)(C)N3)ccn1 [Compound 45, N-(4-(2,2-Dimethyl-4-oxo-1,2,3,4-tetrahydrothieno [3,2-d]pyrimidin-6-yl)pyridin-2-yl)-ethanesulfonamide] |  | 
18 | < 10 |  |  | < 10 | 47 |  | CC1(C)NC(=O)c2sc(-c3cccc(NC(=O)C4CC4)c3)cc2N1 [Compound 53, N-(3-(2,2-Dimethyl-4-oxo-1,2,3,4-tetrahydrothieno [3,2-d]pyrimidin-6-yl)phenyl)cyclopropanecarboxamide] |  | 
